Reference: US10941187B2 (The United States of America, as represented by the …, priority 2001, dated 2021)
Entries after “also recorded” stand apart in the source; their conditions may differ. Ends that are not written are not given here.

Legend:
[1] = system: RIN 1048-36 cells; assay: Insulin secretion in vitro in RIN 1048-36 cells; format: cell-based, rat; conditions: peptide 1×10−8 M, 5 mM glucose, 1 h; compared with GLP-1 and exendin-4
Description: Thereafter, they were preincubated for 2 periods of 30 min each with glucose-free buffer (containing mM: 140 NaCl, 5 KCl, 1 NaPO4, 1 MgSO4, 2 CaCl, 20 HEPES buffer (pH 7.4), and 0.1% bovine serum albumin) in a 37° C. humidified incubator. […] After 1 h the medium was removed and stored at −80° C. prior to quantification of insulin levels by EIA (Crystal Chem, Chicago Ill.), and the cells were lysed with HCl (300 μl, 0.1 M, 20 min, RT) for measurement of total protein using the Bradford method (Bio-Rad, Richmond, Calif.) with bovine γ-globulin as a standard.

[2] = system: fasted, diabetic Zucker rats; assay: Duration of in vivo insulinotropic action after intraperitoneal peptide; parameters: species or system rat; conditions: 0.4 nmol/kg i.p.
Description: The time-dependent duration of insulinotropic action was evaluated by quantifying plasma insulin and glucose levels in Zucker rats following intraperitoneal (i.p.) peptide administration. Specifically, after overnight fasting, diabetic male rats, approximately 400 g weight, were anesthetized with 50 mg/kg pentobarbital and a catheter was tied into their right femoral artery for blood collection. […] Blood, taken prior to peptide administration, at 30 and 60 min, and at 2, 4, 6 and 24 h, was drawn into heparinized tubes containing EDTA and aprotinin for insulin determination, and a separate sample was taken to measure glucose. Plasma was separated, removed and immediately frozen to −70° C. Thereafter insulin levels were quantified by using a rat insulin ELISA kit (Crystal Chem Inc., Chicago, Ill.) and plasma glucose was quantified by the glucose oxidase method.

[3] = system: Zucker fatty (fa/fa) and Wistar rats; assay: Blood glucose and insulin after subcutaneous injection; format: in vivo, rat; conditions: 24 nmol/kg s.c.
Description: Six-month old male Zucker fa/fa rats (Harlan, Indianapolis, Ind.) and six-month old Wistar rats were used in this study. They were allowed ad libitum access to chow and water and were on a 12 h light, 12 h dark cycle (lights on 0700 h). The bedding for the Zucker rats was a paper based product, “Carefresh” (Absorption Co., Belingham, Wash.). The Zucker rats were fasted on wire, in the absence of bedding, overnight before the experiment. Wistar rats were fasted on their normal bedding. General anaesthesia was induced by an intraperitoneal injection of pentobarbital (50 mg/kg).

[4] = system: PC12 cells; assay: Inhibition of GLP-1, exendin-4 and NGF induced neurite outgrowth in PC12 cells; format: cell-based, rat; conditions: 48 h; PD98059 50 μM, LY294002 40 μM, H89 20 μM, or exendin (9-39) with exendin-4
Description: NGF at 50 ng/ml and forskolin (PKA activator) (20 μM) were used as positive controls in these treatments.

[5] = system: Aβ1-40; assay: Aβ1-40 sandwich ELISA of PC12 conditioned media; format: cell-based, rat; conditions: PC12 cells, relative to control cells
[6] = system: PC12 cells; assay: Neurite outgrowth in PC12 cells; format: cell-based, rat; conditions: day 3
Description: Three dishes for each treatment condition were prepared. Treatments began 24 hours after seeding, once cells were well attached.
PC12 cells were grown on 60 mm dishes as above and cultured for four days. During this time neurite outgrowth was quantified daily. Five random fields of cells were evaluated per dish and the proportion of neurite-bearing cells was determined. Approximately 100 cells per field were scored for neurites equal to or greater in length than that of the cell body. A cell was only scored once, although it may have had more than one process per cell.

[7] = system: synaptophysin; assay: Synaptophysin expression in PC12 cells (Western blot); format: cell-based, rat; conditions: PC12 cell lysates
Description: The synaptophysin monoclonal antibody (Oncogene Research Products, San Diego Calif.), which stains neurosecretory vesicles of PC12 cells, was used. The membranes were blocked with 20 mM Tris, 500 mM NaCl pH 7.4, 1% (w/v) casein (BioRad, San Diego Calif.) at 37° C. for 1 hour. Primary antibody was diluted in block and incubated with the proteins overnight at 4° C. The membrane was vigorously washed with 20 mM Tris pH 7.4, 150 mM NaCl and 0.05% Tween-20 (TBST), three times for 15 minutes at room temperature. The peroxidase-linked secondary antibody in block was incubated with the membrane for 2 hours at room temperature. Peroxidase-linked anti-mouse IgM (Chemicon, Tenecula, Calif.) was used as the secondary antibody against synaptophysin. Excess antibody was washed off with three vigorous washes in TBST prior to incubation in ECL Plus (Amersham, Philadelphia, Pa.) for 5 minutes. The membrane was subsequently exposed to photographic film.

[8] = system: Aβ1-40; assay: Aβ1-40 in whole brain homogenates after i.c.v. infusion in control mice; format: in vivo, mouse; conditions: 2 μg NGF i.c.v., 48 h, p<0.01
Description: Lean db+/db+ control male mice (n=24) were anaesthetized with 50 mg/kg pentobarbitone and placed in a stereotaxic surgical frame with mouse adaptor (David Kopf Instruments, Tujunga, Calif.) using temporal bone cup holders. […] After 48 h all animals were sacrificed by cervical dislocation, the brains removed and rapidly frozen in liquid nitrogen. Brains were pulverized and stored at −80° C. prior to assaying for Aβ levels.
Equivalent volumes of conditioned media and whole brain homogenate were assayed for Aβ1-40 using a sandwich ELISA (Suzuki et. al., 1994). The monoclonal antibody BAN50 (raised against Aβ1-16) was used as the capture antibody for all species of Aβ (Aβ1-40 and Aβ1-42), and the monoclonal antibody BA27 was used to specifically detect Aβ1-40 levels. Levels of Aβ1-40 were expressed in pM concentrations for conditioned media samples and finol/g for the mouse brain homogenates, as deduced from the appropriate standard curve run in parallel with the assay.

[9] = system: PC12 cells; assay: Bromodeoxyuridine incorporation in PC12 cells; conditions: day 1; GLP-1 33 μg/ml, NGF 50 ng/ml
Description: Immunocytochemistry with an anti-BrdU antibody after labeling was used to identify cells that were actively replicating DNA at the time of labeling. […] 10 μM BrdU was added to the culture medium for 6 hours prior to fixing in 4% paraformaldehyde, to label cellular DNA. The remainder of the method was followed according to the proliferation kit (Roche, Indianapolis, Ind.). […] BrdU incorporation was quantitated on days 1, 2 and 3 of treatment. Three dishes for each treatment condition were counted and expressed as the percentage of labeled cells relative to the total number of cells.

[10] = system: β-amyloid precursor protein (βAPP); assay: Western immunoblot of βAPP (cell lysates) and sAPP (conditioned media) in PC12 cells; conditions: day 3, relative to untreated

Compound: CC[C@H](C)[C@H](NC(=O)[C@H](Cc1ccccc1)NC(=O)[C@H](CCC(=O)O)NC(=O)[C@H](CCCCN)NC(=O)[C@H](C)NC(=O)[C@H](C)NC(=O)[C@H](CCC(N)=O)NC(=O)CNC(=O)[C@H](CCC(=O)O)NC(=O)[C@H](CC(C)C)NC(=O)[C@H](Cc1ccc(O)cc1)NC(=O)[C@H](CO)NC(=O)[C@H](CO)NC(=O)[C@@H](NC(=O)[C@H](CC(=O)O)NC(=O)[C@H](CO)NC(=O)[C@@H](NC(=O)[C@H](Cc1ccccc1)NC(=O)[C@@H](NC(=O)CNC(=O)[C@H](CCC(=O)O)NC(=O)CNC(=O)[C@@H](N)Cc1c[nH]cn1)[C@@H](C)O)[C@@H](C)O)C(C)C)C(=O)N[C@@H](C)C(=O)N[C@@H](Cc1c[nH]c2ccccc12)C(=O)N[C@@H](CC(C)C)C(=O)N[C@H](C(=O)N[C@@H](CCCCN)C(=O)NCC(=O)N[C@@H](CCCNC(=N)N)C(N)=O)C(C)C [GLP-1 Gly^8]
- induction of insulin secretion [1]: induced insulin secretion slightly more than exendin-4
- potency on plasma insulin versus equimolar standard [2]: more potent than equimolar GLP-1
- hypoglycemia in Zucker rats ([3]; fasted Zucker fatty rats): drop in blood glucose into the hypoglycemic range
- blood glucose ([3]; fasted rats, monitored 8 h): rapidly lowered blood glucose

Compound: O=S(=O)(NCCNC/C=C/c1ccc(Br)cc1)c1cccc2cnccc12 [H89]
- effect on GLP-1, exendin-4 or NGF induced neurite outgrowth [4]: some inhibitory effects on GLP-1 and NGF-induced neurite outgrowth

Compound: COc1cccc(-c2cc(=O)c3ccccc3o2)c1N [PD98059]
- effect on GLP-1, exendin-4 or NGF induced neurite outgrowth [4]: reduced GLP-1 and exendin-4 induced neurite outgrowth

Compound: exendin (9-39)
- effect on GLP-1, exendin-4 or NGF induced neurite outgrowth [4]: failed to initiate neurite extension

Compound: nerve growth factor [NGF]
- Aβ1-40 levels in conditioned media [5]: significant increases in Aβ1-40 levels
- increase in neurite projections from controls ([6]; NGF 10 ng/ml): 550%
- increase in neurite projections from controls ([6]; NGF 30 ng/ml): 720%
- maximal decrease in synaptophysin expression relative to control cells [7]: approximately 70%
- synaptophysin expression ([7]; relative to untreated): dramatically reduced the expression of the synaptophysin protein
- reduction of Aβ1-40 levels compared to vehicle [8]: 40%
- increased incorporation of BrdU relative to untreated [9]: 9%
- intracellular levels of βAPP (cell lysates) [10]: dramatic increases in intracellular levels of βAPP

Compound: peptide 8: GLP-1 with A to G substitution at position 8 and V to L at position 16 (SEQ ID NO:5) (HGEGTFTSDLSSYLEGQAAKEFIAWLVKGR)
- induction of insulin secretion [1]: retained the ability to induce insulin secretion; also recorded: substantially greater effect on insulin secretion than either GLP-1 or exendin-4

Compound: peptide 9: GLP-1 with A/G, V/L, S/K, Y/Q, L/M substitutions at position 8, 16, 18, 19, 20 (SEQ ID NO: 6) (HGEGTFTSDLSKQMEGQAAKEFIAWLVKGR)
- induction of insulin secretion [1]: retained the ability to induce insulin secretion; also recorded: restores activity

Compound: peptide 15: truncation of exendin-4 including residues up to and including residue 43 (SEQ ID NO:12)
- induction of insulin secretion [1]: inducing effect that exceeded that of exendin-4 or GLP-1

Compound: peptide 30: peptide 1 with neutral serine replaced by basic lysine in position 18 (SEQ ID NO:27) (HGEGTFTSDVSKYLEGQAAKEFIAWLVKGR)
- induction of insulin secretion [1]: loss of activity

Compound: peptide 36: exendin-4 with arginine in position 36 and position 30 modified from glutamic acid to alanine (SEQ ID NO:33) (HGEGTFTSDLSKQMEEEAVREFIAWLKNGR; not fully specified)
- induction of insulin secretion [1]: well tolerated
